Article PMC6057649, “Development of NanoLuc-PEST expressing Leishmania mexicana as a new drug discovery tool for axenic- and intramacrophage-based assays” (PLoS Neglected Tropical Diseases, 2018)

System: NanoLuc-PEST expressing L. mexicana axenic amastigotes
Assay: microbe, parasite or virus in culture
Type: cell-based
Conditions: for viability at 2 µM / viability at 10 µM: Leishmania mexicana, read-out: Relative Bioluminescence (%); for viability at 2 µM / viability at 10 µM / Relative Bioluminescence (%): 72 hours, relative to DMSO only control, n = 4; for EC50: hit compounds from the axenic amastigote screen, S3 Table, read-out: EC50, Axenic Amastigotes

Row | Compound | viability at 2 µM (2 µM compound) [%] | viability at 10 µM (10 µM compound) [%] | Relative Bioluminescence (%) (2 µM compound) | Relative Bioluminescence (%) (10 µM compound) | EC50 [nM]
1 | NCC[C@H](O)C(=O)N[C@@H]1C[C@H](N)[C@@H](O[C@H]2O[C@H](CN)[C@@H](O)[C@H](O)[C@H]2O)[C@H](O)[C@H]1O[C@H]1O[C@H](CO)[C@@H](O)[C@H](N)[C@H]1O [MMV687796, Amikacin, reference compound] | 79.3 | 58.2 |  |  | 
2 | CC(C)/N=c1\cc2n(-c3ccc(Cl)cc3)c3ccccc3nc-2cc1Nc1ccc(Cl)cc1 [MMV687800, Clofazimine, reference compound] | 41.1 | 37.9 |  |  | 
3 | CC[C@@H](CO)NCCN[C@@H](CC)CO [MMV687801, Ethambutol, reference compound] | 98.6 | 127 |  |  | 
4 | CC(=O)NC[C@H]1CN(c2ccc(N3CCOCC3)c(F)c2)C(=O)O1 [MMV687803, Linezolid, reference compound] | 76.5 | 111 |  |  | 
5 | O=C(Nc1ccc(C(F)(F)F)c(C(F)(F)F)c1)c1cc(Cl)ccc1O [MMV687807] |  |  | 0.88 | 0.53 | 250
6 | CN1CCN(CCCOc2ncc(Nc3ncc(-c4ccc(C(F)(F)F)c(F)c4)nc3C(N)=O)cn2)CC1 [MMV687812] |  |  | 66.08 | 77.79 | 
7 | O=C1O[C@@H](COc2ccon2)CN1c1cc(F)c(C2=CCN(Cc3ccccc3)CC2)c(F)c1 [MMV687813] |  |  | 52.93 | 58.34 | 
8 | Cc1cccc(-c2nc(Nc3ccncn3)c3sccc3n2)n1 [MMV688122] |  |  | 61.39 | 16.72 | 
9 | CCc1ccc(S(=O)(=O)Nc2cc(CN3CCN(CCC(C)C)CC3)ccc2C)cc1 [MMV688124] |  |  | 85.13 | 56.21 | 
10 | CCCc1ccc(S(=O)(=O)Nc2ccc(CN3CCN(CC4CC4)CC3)cc2)cc1 [MMV688125] |  |  | 86.53 | 100.33 | 
11 | c1ccc(Oc2ccc(-c3cncc(-c4ccc5[nH]ccc5c4)n3)cc2)cc1 [MMV688178] |  |  | 91.24 | 94.95 | 
12 | NC(N)=Nc1ccc(-c2ccc(-c3ccc(N=C(N)N)cc3Cl)o2)c(Cl)c1 [MMV688179] |  |  | 105.96 | 54.50 | 
13 | Cc1nn(C)c(C)c1NS(=O)(=O)c1c(Cl)cc(-c2ccnc(N3CCNCC3)c2)cc1Cl [MMV688180] |  |  | 98.32 | 81.67 | 
14 | COc1ccc(-c2cnc3cnc(-c4cccc(OC(C)C)c4)cn23)cc1 [MMV688270] |  |  | 58.63 | 51.88 | 
15 | N=C(N)Nc1ccc(-c2ccc(-c3ccc(N=C(N)N)c(Cl)c3)o2)cc1Cl [MMV688271] |  |  | 98.92 | 56.10 | 
16 | Nc1ccc2ncnc(Nc3ccc(OCc4cccc(F)c4)c(Cl)c3)c2c1 [MMV688273] |  |  | 63.86 | 0.09 | 
17 | O=C(CN1CCOCC1)Nc1ccc2ncnc(Nc3ccc(OCc4cccc(F)c4)c(Cl)c3)c2c1 [MMV688274] |  |  | 72.23 | 7.31 | 
18 | CC1=Nc2ccc(Cl)cc2C(O)(c2ccc(C)cc2)N1CCN1CCCCC1 (stereo not drawn) [MMV688279] |  |  | 70.45 | 75.33 | 
19 | CN1CCN(S(=O)(=O)c2ccc(-c3ccc4c(Nc5ncc(Cl)cn5)ccnc4c3)cc2)CC1 [MMV688283] |  |  | 58.40 | 101.72 | 

Row | Compound | viability at 2 µM (2 µM compound) [%] | viability at 10 µM (10 µM compound) [%] | Relative Bioluminescence (%) (2 µM compound) | Relative Bioluminescence (%) (10 µM compound) | EC50 [nM]
20 | COc1ccc(-c2nnc3ccc(-c4cccc(C(C)C)c4)cn23)cc1OC [MMV688313] |  |  | 55.91 | 18.47 | 
21 | CC(=O)NC[C@H]1CN(c2ccc(-c3ccc(CNCc4cnn[nH]4)cc3)c(F)c2)C(=O)O1 [MMV688327, Radezolid, reference compound] | 87.8 | 126 |  |  | 
22 | CC(=O)N1CCN(c2ccc(Oc3ccc(Cl)cc3O)cc2)CC1 [MMV688330] |  |  | 97.96 | 79.07 | 
23 | Nc1nc(N)c2c3c(sc2n1)CN(Cc1ccccc1)CC3 [MMV688345] |  |  | 105.25 | 69.94 | 
24 | COC(=O)c1ccc(F)cc1NS(=O)(=O)c1cccc(-c2cnn(Cc3ccccc3)c2)c1 [MMV688350] |  |  | 101.75 | 91.24 | 
25 | O=C1[C@@H](Oc2ccccc2)[C@@H](c2ccc(Cl)cc2)N1CCn1cnc2c(NCc3ccccc3)ncnc21 [MMV688352] |  |  | 66.17 | 8.52 | 
26 | c1cc(C2=NCCN2)cc(-c2cc(-c3ccc(C4=NCCN4)cc3)no2)c1 [MMV688361] |  |  | 96.04 | 78.94 | 
27 | COc1cc(C2=NCCN2)cc2cc(-c3ccc(C4=NCCN4)cc3)oc12 [MMV688362] |  |  | 95.50 | 90.68 | 
28 | CC(C)(C)OC(=O)N1CCC(Cn2nc(-c3cnc4ccccc4c3)c3c(N)ncnc32)CC1 [MMV688364] |  |  | 80.73 | 58.45 | 
29 | NCCN(C(=O)c1ccc(Cl)cc1Cl)c1ccc(OCc2ccc(Cl)cc2)cc1 [MMV688371] |  |  | 95.57 | 61.94 | 
30 | O=C(Nc1ccc(F)c(-c2nc3ncc(-c4ccccc4)cc3[nH]2)c1)N1CCCC1 [MMV688372] |  |  | 17.89 | 6.87 | 
31 | COc1cc(C2=NCCN2)ccc1-c1cn(-c2cccc(C3=NCCN3)c2)nn1 [MMV688407] |  |  | 99.20 | 50.94 | 
32 | CC1=Nc2ccc(Cl)cc2C(c2ccccc2)N1CCNC(=O)CN(C)C (stereo not drawn) [MMV688410] |  |  | 114.60 | 63.15 | 
33 | Nc1ncnc2c1c(-c1cnc3ccccc3c1)nn2CC1CCNCC1 [MMV688411] |  |  | 105.51 | 65.85 | 
34 | CO[C@@H]1CN(c2ccc(C#CC3(O)CN4CCC3CC4)c(Cc3ccccc3)n2)C[C@H]1O (stereo partly drawn) [MMV688415] |  |  | 63.04 | 31.88 | 
35 | CC(C)(C)OC(=O)N1CCN(c2nccc(-c3ccc(-c4ccc(Cl)cc4)s3)n2)CC1 [MMV688416] |  |  | 76.11 | 66.54 | 
36 | CC(C)n1nc(-c2cc3c(Cl)cccc3[nH]2)c2c(N)ncnc21 [MMV688417] |  |  | 76.07 | -0.98 | 
37 | Cn1ccnc1CNCCS(=O)(=O)c1cccc(Nc2ccc(-c3cccc(F)c3)cn2)c1 [MMV688466] |  |  | 108.11 | 117.26 | 
38 | CCCCN(CCCC)c1c(C#N)cc(S(=O)(=O)Nc2ccccc2)cc1C#N [MMV688467] |  |  | 6.98 | 2.46 | 1650

Row | Compound | viability at 2 µM (2 µM compound) [%] | viability at 10 µM (10 µM compound) [%] | Relative Bioluminescence (%) (2 µM compound) | Relative Bioluminescence (%) (10 µM compound) | EC50 [nM]
39 | Nc1ncnc2n[nH]c(Cc3cccc4ccccc34)c12 [MMV688469] |  |  | 103.98 | 53.28 | 
40 | CS(=O)(=O)N1CCC(CCn2nc(Cc3cccc4ccccc34)c3c(N)ncnc32)CC1 [MMV688470] |  |  | 96.68 | 53.17 | 
41 | CC(C(=O)Nc1ccc2oc(-c3ccncc3)nc2c1)c1ccccc1 (stereo not drawn) [MMV688471] |  |  | 59.14 | 49.33 | 
42 | CC(Oc1cccc(Cl)c1)C(=O)Nc1ccc2oc(-c3ccncc3)nc2c1 (stereo not drawn) [MMV688472] |  |  | 83.48 | 74.96 | 
43 | COc1cc(C2=NCCN2)ccc1-n1cc(-c2cccc(C3=NCCN3)c2)nn1 [MMV688474] |  |  | 77.71 | 76.43 | 
44 | CC(=O)NCC1CN(c2ccc(-c3ccc(CO)cc3)c(F)c2)C(=O)O1 (stereo not drawn) [MMV688508] |  |  | 98.16 | 65.29 | 
45 | O=C(OCc1ccccc1)N1CCC(c2cc(-c3ccncc3)c(-c3ccc(F)cc3)[nH]2)CC1 [MMV688509] |  |  | 70.28 | 27.84 | 
46 | N=C(N)c1ccc(-c2cc(-c3ccccc3)on2)cc1 [MMV688514] |  |  | 40.80 | 34.58 | 
47 | CC(C)(C)C(=O)N(CCCCCCN1C[C@H](O)[C@@H](O)[C@H](O)[C@H]1CO)C1CCCCCC1 [MMV688543] |  |  | 65.10 | 39.32 | 
48 | COc1ccc(C2=NCCN2)cc1-c1cn(-c2cccc(C3=NCCN3)c2)nn1 [MMV688547] |  |  | 85.85 | 128.07 | 
49 | CC(C)(C)n1nc(-c2ccccc2)c2c(N)ncnc21 [MMV688548] |  |  | 78.88 | 77.20 | 
50 | CCc1ccccc1-n1c(C)cn2c3c(=O)n(C(C(=O)OC)C(C)C)c(=O)n(C)c3nc12 (stereo not drawn) [MMV688550] |  |  | 66.32 | 56.13 | 
51 | Cc1nn(C(=O)Nc2cccc(C(F)(F)F)c2)c(C)c1Sc1ncccn1 [MMV688552] |  |  | 71.00 | 47.85 | 
52 | O=C(NCc1ccoc1)N1CCN(Cc2ccc3c(c2)OCO3)CC1 [MMV688553] |  |  | 90.94 | 98.31 | 
53 | CNc1snc(C)c1C(=O)NCCOc1ccc(OC)cc1 [MMV688554] |  |  | 117.68 | 66.57 | 
54 | O=C(NCc1ccco1)N1CCN(Cc2ccc(Cl)s2)CC1 [MMV688555] |  |  | 63.56 | 83.23 | 
55 | NCC(c1cccs1)S(=O)(=O)c1ccccc1 (stereo not drawn) [MMV688557] |  |  | 71.96 | 58.46 | 
56 | CN1CCC(c2cc(-c3ccncc3)c(-c3ccc(F)cc3)[nH]2)CC1 [MMV688703] |  |  | 74.84 | 81.84 | 
